Assay results as given in patent EP2474542A1 (priority 2010, dated 2012).
Read-outs that look alike come from different tables or passages of the source.

Columns and labels:
[1] = logP determination (HPLC/MS characterisation, HCOOH); format: physicochemical
Phytophthora infestans = format: in vivo; conditions: preventive, young tomato plants sprayed, 100ppm of active ingredient, evaluated 7 days after the inoculation; 0% = untreated control, 100% = no disease
[2] = HCOOH, HPLC/MS, read-out: logP(HCOOH)

`Cn1nnnc1/C(=N\OCc1csc(N=C=O)n1)c1ccccc1` [(Z)-N-[(2-isocyanato-1,3-thiazol-4-yl)methoxy]-1-(1-methyl-1H-tetrazol-5-yl)-1-phenylmethanimine] showed a chromatographic logP [1, 2] of 3.13.

Work on `Cn1nnnc1/C(=N\OCc1csc(NC(=O)O/N=C/c2ccccc2)n1)c1ccccc1` [Example 1, ({4-[({[(Z)-(1-methyl-1H-tetrazol-5-yl)(phenyl)methylene]amino}oxy)methyl]-1,3-thiazol-2-yl}amino)({[(E)-phenylmethylene]amino}oxy)methanone] yielded an Eff.% (Phytophthora infestans) of 95%, a chromatographic logP [1, 2] of 3.39 and a chromatographic logP ([1]; Table 1, read-out: log P) of 3.13.
